The source made the active and inactive calls.
Assays:
[1] = control 3'UTR Renilla luciferase suppression, dose response, counter-screen for Shn3 inhibitor project, cell-based, Clone20-Shn3RL, cherry-picked (AID 624133); format: functional
[2] = HepG2 cell cytotoxicity, dose response, cytotoxicity control for Shn3 inhibitor project, CellTiter-Glo, cherry-picked (AID 624134); format: functional, cell-based
[3] = Shn3 3'UTR reporter inhibitors, dose response, cell-based, Clone20 osteoblasts, firefly luciferase, cherry-picked (AID 624132); format: functional;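 note: firefly luciferase luminescence from reporter carrying the Shn3 3'UTR in osteoblasts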
[4] = molecular target: T1, Replicative DNA helicase DnaB (Mycobacterium tuberculosis, UniProt P9WMR3); assay: DnaB intein splicing inhibitors, dose response, biochemical, cell-free fluorescence (AID 449749); format: functional
T1 sequence (P9WMR3 whole entry): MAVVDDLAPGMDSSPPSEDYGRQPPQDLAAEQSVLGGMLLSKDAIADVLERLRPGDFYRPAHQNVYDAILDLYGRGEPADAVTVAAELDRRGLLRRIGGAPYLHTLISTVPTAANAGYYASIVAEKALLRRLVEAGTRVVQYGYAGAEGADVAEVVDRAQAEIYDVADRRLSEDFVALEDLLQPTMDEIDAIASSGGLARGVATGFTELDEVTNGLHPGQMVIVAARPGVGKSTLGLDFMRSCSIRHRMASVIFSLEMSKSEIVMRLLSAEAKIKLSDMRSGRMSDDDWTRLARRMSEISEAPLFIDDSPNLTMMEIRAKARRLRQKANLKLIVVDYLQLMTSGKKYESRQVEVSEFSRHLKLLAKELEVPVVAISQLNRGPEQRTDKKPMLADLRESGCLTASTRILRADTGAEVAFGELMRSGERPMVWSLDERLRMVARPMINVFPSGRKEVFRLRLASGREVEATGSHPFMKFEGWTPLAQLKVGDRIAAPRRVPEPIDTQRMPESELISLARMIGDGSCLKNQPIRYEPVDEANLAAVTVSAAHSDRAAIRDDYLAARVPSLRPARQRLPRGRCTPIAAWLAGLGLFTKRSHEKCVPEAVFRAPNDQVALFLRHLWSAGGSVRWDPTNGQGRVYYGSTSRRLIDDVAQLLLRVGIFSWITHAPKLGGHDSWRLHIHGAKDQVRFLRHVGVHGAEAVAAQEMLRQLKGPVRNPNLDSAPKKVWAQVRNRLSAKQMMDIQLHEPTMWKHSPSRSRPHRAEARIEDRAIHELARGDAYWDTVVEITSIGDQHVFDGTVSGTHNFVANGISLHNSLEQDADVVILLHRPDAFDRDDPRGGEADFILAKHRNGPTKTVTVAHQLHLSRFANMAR

Protein RecA = molecular target: T2, Protein RecA (Mycobacterium tuberculosis, UniProt P9WHJ3); assay: Fluorescence Cell-Free Homogeneous Dose Retest to Identify Inhibitors of RecA-Intein Splicing Activity. [Related pubchem assays (depositor defined):AID2097, AID2223, AID489010, AID492950]; format: functional
T2 sequence (P9WHJ3 whole entry): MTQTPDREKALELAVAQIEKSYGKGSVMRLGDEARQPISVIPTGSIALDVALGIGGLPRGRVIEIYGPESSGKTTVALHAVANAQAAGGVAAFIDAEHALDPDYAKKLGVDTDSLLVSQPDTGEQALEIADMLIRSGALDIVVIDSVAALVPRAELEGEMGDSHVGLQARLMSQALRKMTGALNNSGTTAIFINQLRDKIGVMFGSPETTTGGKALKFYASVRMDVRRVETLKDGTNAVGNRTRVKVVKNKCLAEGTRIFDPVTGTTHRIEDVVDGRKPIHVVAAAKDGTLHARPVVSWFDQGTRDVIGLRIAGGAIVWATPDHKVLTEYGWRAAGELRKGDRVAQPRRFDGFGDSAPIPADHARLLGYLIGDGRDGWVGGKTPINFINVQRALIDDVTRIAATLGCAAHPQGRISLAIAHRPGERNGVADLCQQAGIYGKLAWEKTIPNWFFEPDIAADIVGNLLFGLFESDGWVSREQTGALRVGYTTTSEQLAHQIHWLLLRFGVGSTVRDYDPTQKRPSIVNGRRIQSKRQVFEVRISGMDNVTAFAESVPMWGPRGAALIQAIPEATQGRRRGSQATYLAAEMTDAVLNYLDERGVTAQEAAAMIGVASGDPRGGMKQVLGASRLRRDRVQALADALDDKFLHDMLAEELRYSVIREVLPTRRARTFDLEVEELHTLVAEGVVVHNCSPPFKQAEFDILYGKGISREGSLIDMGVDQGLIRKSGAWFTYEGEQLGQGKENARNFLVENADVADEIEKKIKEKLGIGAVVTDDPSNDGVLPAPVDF

[5] = Luminescence Cell-Based Dose Response HTS to Identify Activators of Luciferase Translation or Activity in H4 […] Cells. [Related pubchem assays: 1829 (Project Summary), 1814 (Primary HTS)]; format: functional
[6] = molecular target: T3, Corticotropin-releasing factor receptor 2/Corticotropin-releasing factor-binding protein (Homo sapiens, UniProt P24387+Q13324); assay: activators of CRF receptor 2 with binding protein – uHTS hits, confirmation (AID 602473); format: functional; conditions: read-out: EC50_Mean
T3 sequence (Q13324 whole entry): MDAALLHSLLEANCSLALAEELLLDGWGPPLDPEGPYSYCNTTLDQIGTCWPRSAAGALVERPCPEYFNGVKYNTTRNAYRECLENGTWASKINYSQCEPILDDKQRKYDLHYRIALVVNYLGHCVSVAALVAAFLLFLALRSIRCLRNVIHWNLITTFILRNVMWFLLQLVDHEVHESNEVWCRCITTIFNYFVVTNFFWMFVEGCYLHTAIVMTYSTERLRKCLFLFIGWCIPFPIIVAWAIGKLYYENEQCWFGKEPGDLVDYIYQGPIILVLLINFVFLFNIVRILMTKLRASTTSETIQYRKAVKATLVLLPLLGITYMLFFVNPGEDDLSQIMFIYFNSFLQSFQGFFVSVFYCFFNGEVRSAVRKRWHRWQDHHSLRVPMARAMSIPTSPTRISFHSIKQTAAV
T3 sequence (P24387 whole entry): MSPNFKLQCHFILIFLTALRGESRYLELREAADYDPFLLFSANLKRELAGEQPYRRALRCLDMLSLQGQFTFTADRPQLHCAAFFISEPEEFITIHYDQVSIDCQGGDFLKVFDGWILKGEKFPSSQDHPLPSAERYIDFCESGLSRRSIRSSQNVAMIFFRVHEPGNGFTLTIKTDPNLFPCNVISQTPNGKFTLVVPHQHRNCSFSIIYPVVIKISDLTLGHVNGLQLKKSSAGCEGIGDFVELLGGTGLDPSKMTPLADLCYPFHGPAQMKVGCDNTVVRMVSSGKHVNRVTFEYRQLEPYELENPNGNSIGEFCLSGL

[7] = molecular target: T3, Corticotropin-releasing factor receptor 2/Corticotropin-releasing factor-binding protein; assay: Dose Response confirmation of uHTS hits for small molecule antagonists of the CRF-binding protein and CRF-R2 receptor complex.; format: functional; conditions: read-out: IC50_Mean
[8] = molecular target: T4, Heat shock factor protein 1 (Mus musculus, UniProt P38532); assay: HSF1 potentiators in luciferase reporter cells, confirmation, cell-based, NIH3T3, luminescence, dose retest (AID 435004); format: functional;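 note: stress induced by proteasome inhibitor MG132 added 30 min after compound; luciferase reporter driven by HSF1 response element in NIH3T3 cells; actives raise luminescence as potentiators of the MG132 stress response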
T4 sequence (P38532 whole entry): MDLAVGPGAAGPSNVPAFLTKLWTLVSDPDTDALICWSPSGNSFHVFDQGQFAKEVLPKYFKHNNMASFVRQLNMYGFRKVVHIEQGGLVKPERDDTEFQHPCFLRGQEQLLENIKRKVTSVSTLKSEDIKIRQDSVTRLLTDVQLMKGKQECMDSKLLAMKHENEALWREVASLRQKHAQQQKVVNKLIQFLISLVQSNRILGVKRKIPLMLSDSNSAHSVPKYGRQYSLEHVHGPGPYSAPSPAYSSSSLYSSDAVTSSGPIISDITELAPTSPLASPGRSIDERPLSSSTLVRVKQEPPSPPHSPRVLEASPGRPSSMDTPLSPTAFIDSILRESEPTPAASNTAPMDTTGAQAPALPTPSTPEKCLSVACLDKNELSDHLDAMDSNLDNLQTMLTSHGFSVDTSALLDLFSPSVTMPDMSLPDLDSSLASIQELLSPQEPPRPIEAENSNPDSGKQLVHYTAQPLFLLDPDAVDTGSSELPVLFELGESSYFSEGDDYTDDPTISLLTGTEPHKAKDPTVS

H4 = assay: Luminescence Cell-Based Dose Response HTS to Identify Activators of 5'UTR Stem-Loop Driven Prion Protein mRNA Translation in H4 Neuroglioblastoma Cells. [Related pubchem assays: 1829 (Project Summary), 1814 (Primary HTS)]; format: functional; conditions: Homo sapiens
[9] = cytotoxicity toward NIH3T3 fibroblasts, dose response, counter-screen, cell-based, ATP luminescence, mouse fibroblasts (AID 2010); format: functional;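 note: cells exposed to compound for about 90 hours before reading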
[10] = inhibitors of intracellular T. cruzi replication, confirmation, NIH3T3 host cells, beta-gal luminescence (AID 2044); format: functional, cell-based;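 note: intracellular parasites grown in NIH/3T3 mouse fibroblasts as host cells; luminescent beta-galactosidase reporter signal from transgenic T. cruzi replicating inside host cells; inhibitors lower the luminescence signal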
cells [11] = assay: cells
cells [12] = format: functional, cell-based
cells [13] = format: functional, cell-based; remark: listed apart in the source
Paired box protein Pax-8 = Paired box protein Pax-8 (Homo sapiens, UniProt Q06710); assay: inhibitors of PAX8-driven TPO luciferase reporter, dose response, RMG-I cells, cherry-pick (AID 687027); format: functional, cell-based;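 note: luciferase reporter driven by Pax8 target thyroperoxidase promoter measured by SteadyGlo luminescence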
Paired box protein Pax-8, sequence (Q06710 whole entry): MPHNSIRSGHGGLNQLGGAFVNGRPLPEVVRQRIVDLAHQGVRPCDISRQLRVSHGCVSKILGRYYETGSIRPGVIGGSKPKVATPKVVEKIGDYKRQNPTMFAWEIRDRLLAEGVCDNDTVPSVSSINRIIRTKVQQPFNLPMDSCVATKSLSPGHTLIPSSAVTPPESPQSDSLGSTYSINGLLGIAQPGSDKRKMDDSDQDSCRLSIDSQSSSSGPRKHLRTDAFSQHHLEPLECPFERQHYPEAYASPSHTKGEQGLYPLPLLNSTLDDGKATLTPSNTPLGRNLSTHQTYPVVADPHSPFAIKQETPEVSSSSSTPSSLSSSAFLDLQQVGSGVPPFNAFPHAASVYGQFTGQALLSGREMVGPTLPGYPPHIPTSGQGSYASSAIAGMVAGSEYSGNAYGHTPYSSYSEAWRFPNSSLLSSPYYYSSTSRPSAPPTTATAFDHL

INS1 = assay: beta cell apoptosis inhibitors, cytokine rescue, dose response, luminescence, retest (AID 449756); format: functional, cell-based; conditions: Rattus norvegicus;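 note: cell death triggered by IL-1 beta plus TNF-alpha plus IFN-gamma mixture; protective hits raise ATP signal compared with cytokine alone wells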
[14] = Luminescence Cell-Based Dose Retest to Confirm Inhibitors of Cancer Stem Cells. [Related pubchem assays (depositor defined):AID2717, AID2721]; format: functional; conditions: Homo sapiens

## CN(c1ccccc1)S(=O)(=O)c1cc(C(=O)OCC(=O)N2CCN(C(=O)c3ccco3)CC2)ccc1Cl
[1]
  AC50: 30.6 µM (active)
[2]
  AC50: > 70 µM (inactive)
[3]
  AC50: 62.9 µM (active)

## Cc1n[nH]c2c1C(c1ccoc1)C(C#N)=C(N)O2 (configuration not stated)
[4]
  AC50: 5.36 µM (active)
Protein RecA
  EC50: 2.25 µM (active)

## CC(C)c1ccc(NC(=O)NC2CCCCC2)cc1
[5]
  EC50: 0.114 µM (active)

## O=[N+]([O-])c1cccc2c([As](=O)(O)O)cccc12
[4]
  AC50: 16.4 µM (active)
Protein RecA
  EC50: 10.1 µM (active)

## CN(C)CCCNC(=O)c1ccccc1Oc1ccccc1
[6]
  EC50: > 53 µM (inactive)
[7]
  IC50: > 47.1 µM (inactive)

## CN(C)c1ccc2nsnc2c1[N+](=O)[O-]
[4]
  AC50: > 380 µM (inactive)
Protein RecA
  EC50: 8.64 µM (active)

## Cc1n[nH]c2c1C(c1cc(Br)cs1)C(C#N)=C(N)O2 (configuration not stated)
[4]
  AC50: 12.7 µM (active)
[8]
  EC50: 14.6 µM (active)
Protein RecA
  EC50: 6.13 µM (active)

## COc1ccc(NC(=S)NCc2cccnc2)cc1
[6]
  EC50: > 53 µM (inactive)
[7]
  IC50: 9.74 µM (active)

## Cn1c(C(=O)NCC2CCCO2)cc2oc3ccccc3c21 (configuration not stated)
H4
  EC50: 47 µM (active)
[5]
  EC50: 0.289 µM (active)

## COc1cccc(NC(=O)COC(=O)c2ccccc2C(=O)N2CCN(c3ccccc3)CC2)c1
[6]
  EC50: > 53 µM (inactive)
[7]
  IC50: > 47.1 µM (inactive)

## CCCCNS(=O)(=O)c1ccc(S(=O)(=O)NCc2ccncc2)cc1
[1]
  AC50: 23 µM (active)
[2]
  AC50: 6.47 µM (active)
[3]
  AC50: 2.4 µM (active)

## CCOc1ccc(CN2CCCC(N3CCN(c4ccc(OC)cc4)CC3)C2)cc1 (configuration not stated)
[9]
  EC50: > 60 µM (not active)
[10]
  EC50: < 0.1 µM (active)
Cells [11]
  EC50: 0.042 µM (active)

## COCc1nnc(NC(=O)c2cc(Cl)ccc2OC)s1
Cells [12]
  EC50: > 350 µM (not active)
Cells [13]
  EC50: > 350 µM (not active)

## Cc1c(C(=O)NCc2cccnc2)oc2ccccc12
[6]
  EC50: > 53 µM (inactive)
[7]
  IC50: > 47.1 µM (inactive)

## O=C(Nc1nc(-c2cccs2)c(-c2cccs2)s1)C1(c2ccccc2)CC1
Paired box protein Pax-8
  AC50: 51.1 µM (active)

## O=C(NCCc1ccccc1)c1cc2sccc2n1Cc1ccccc1
Cells [12]
  EC50: > 350 µM (not active)
Cells [13]
  EC50: > 350 µM (not active)

## COc1ccc(/C=C2/CCc3ccccc3C2=O)cc1CN1CCOCC1
[9]
  EC50: > 60 µM (not active)
[10]
  EC50: < 0.1 µM (active)
Cells [11]
  EC50: 0.245 µM (active)

## Cc1ccc2sc(N(CCCN(C)C)C(=O)c3ccc(S(=O)(=O)N4CCOCC4)cc3)nc2c1C
[9]
  EC50: > 60 µM (not active)
[10]
  EC50: < 0.1 µM (active)
Cells [11]
  EC50: 0.408 µM (active)

## COc1ccc(CN2CCNC(=O)C2CC(=O)N(C)CC2CCOCC2)cc1OC (configuration not stated)
Cells [12]
  EC50: > 350 µM (not active)
Cells [13]
  EC50: > 350 µM (not active)

## CCc1ccc(S(=O)(=O)Nc2ccc(O)c3ccccc23)cc1
[4]
  AC50: 0.305 µM (active)
INS1
  AC50: 8.73 µM (active)
[14]
  AC50: 5.13 µM (active)
Protein RecA
  EC50: 0.0482 µM (active)

## Cc1cc(NC(=O)C23CC4CC(C2)CC(n2cnc([N+](=O)[O-])n2)(C4)C3)no1
[9]
  EC50: > 30 µM (not active)
[10]
  EC50: < 0.1 µM (active)
Cells [11]
  EC50: 0.089 µM (active)

## Cc1ccc(S(=O)(=O)N2CCc3ccccc3CC2)cc1
[1]
  AC50: 3.03 µM (active)
[2]
  AC50: 44.8 µM (active)
[3]
  AC50: 3.29 µM (active)

## CCOC(=O)c1cc(S(=O)(=O)Nc2ccc(F)cc2F)cn1C
[6]
  EC50: > 53 µM (inactive)
[7]
  IC50: > 47.1 µM (inactive)

## C[C@@H]1CCCCO[C@H](CN(C)Cc2ccc(Cl)c(Cl)c2)[C@H](C)CN([C@@H](C)CO)C(=O)c2cc(NC(=O)Nc3ccccc3)ccc2O1
Paired box protein Pax-8
  AC50: 8.42 µM (active)

## Cc1nn(-c2ccccc2)c(/N=C/c2ccccc2O)c1-c1ccccc1
H4
  EC50: 48.4 µM (active)
[5]
  EC50: 45.7 µM (active)

## O=C(CC12CC3CC(CC(C3)C1)C2)N/N=C/c1ccc([N+](=O)[O-])o1
[9]
  EC50: > 60 µM (not active)
[10]
  EC50: < 0.1 µM (active)
Cells [11]
  EC50: 0.019 µM (active)

## CNc1nc(Cl)nc(Nc2ccccc2)n1
[6]
  EC50: > 53 µM (inactive)
[7]
  IC50: > 47.1 µM (inactive)
